Measurements taken from PubChem BioAssay (NCI).
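Here, GI50 denotes the concentration required for 50% inhibition of growth. TGI denotes the concentration required for complete inhibition of growth.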

Legend:
Assay in all cases: NCI anticancer screen, dose series, 384-well format
[1] = system: 786-0 renal
[2] = system: A498 renal
[3] = system: A549 NSCLC
[4] = system: ACHN renal
[5] = system: BT-549 breast
[6] = system: CAKI-1 renal
[7] = system: CCRF-CEM leukemia
[8] = system: COLO 205 colon
[9] = system: DU-145 prostate
[10] = system: EKVX NSCLC
[11] = system: HCC-2998 colon
[12] = system: HCT-116 colon
[13] = system: HCT-15 colon
[14] = system: HL-60(TB) leukemia
[15] = system: HOP-62 NSCLC
[16] = system: HOP-92 NSCLC
[17] = system: HS 578T breast
[18] = system: HT29 colon
[19] = system: IGROV1 ovarian
[20] = system: K-562 leukemia
[21] = system: KM12 colon
[22] = system: LOX IMVI melanoma
[23] = system: M14 melanoma
[24] = system: MALME-3M melanoma
[25] = system: MCF7 breast
[26] = system: MDA-MB-231 breast
[27] = system: MDA-MB-435 melanoma
[28] = system: MDA-MB-468 breast
[29] = system: MOLT-4 leukemia
[30] = system: NCI-H226 lung
[31] = system: NCI-H23 lung
[32] = system: NCI-H322M lung
[33] = system: NCI-H460 NSCLC
[34] = system: NCI-H522 lung
[35] = system: NCI/ADR-RES ovarian
[36] = system: OVCAR-3 ovarian
[37] = system: OVCAR-4 ovarian
[38] = system: OVCAR-8 ovarian
[39] = system: PC-3 prostate
[40] = system: RPMI-8226 leukemia
[41] = system: RXF 393 renal
[42] = system: SF-268 CNS
[43] = system: SF-295 CNS
[44] = system: SF-539 CNS
[45] = system: SK-MEL-28 melanoma
[46] = system: SK-MEL-5 melanoma
[47] = system: SK-OV-3 ovarian
[48] = system: SN12C renal
[49] = system: SNB-19 CNS
[50] = system: SNB-75 CNS
[51] = system: SW-620 colon
[52] = system: T-47D breast
[53] = system: TK-10 renal
[54] = system: U251 glioblastoma
[55] = system: UACC-257 melanoma
[56] = system: UACC-62 melanoma
[57] = system: UO-31 renal

Cc1cnc(NC(=O)Nc2cc(Br)c(C)cc2OC[C@@H]2CNCCO2)cn1
GI50 [1]: 101 nM | TGI [1]: 427 nM | GI50 [2]: 25.5 nM | TGI [2]: 81.8 nM | GI50 [3]: 706 nM | TGI [3]: 14300 nM | GI50 [4]: 58.5 nM | TGI [4]: 254 nM | GI50 [5]: 84.9 nM | TGI [5]: 258 nM | GI50 [6]: 469 nM | TGI [6]: 2860 nM | GI50 [7]: 100 nM | TGI [7]: 219 nM | GI50 [8]: 1690 nM | TGI [8]: 4720 nM | GI50 [9]: 347 nM | TGI [9]: 1490 nM | GI50 [10]: 436 nM | TGI [10]: 11400 nM | GI50 [11]: 41.4 nM | TGI [11]: 180 nM | GI50 [12]: 977 nM | TGI [12]: 2300 nM | GI50 [13]: 303 nM | TGI [13]: 1130 nM | GI50 [14]: 47.8 nM | TGI [14]: 174 nM | GI50 [15]: 143 nM | TGI [15]: 512 nM | GI50 [16]: 106 nM | TGI [16]: 851 nM | GI50 [17]: 52.8 nM | TGI [17]: 245 nM | GI50 [18]: 326 nM | TGI [18]: 1120 nM | GI50 [19]: 354 nM | TGI [19]: 12200 nM | GI50 [20]: 157 nM | TGI [20]: 323 nM | GI50 [21]: 72.3 nM | TGI [21]: 510 nM | GI50 [22]: 1140 nM | TGI [22]: 2390 nM | GI50 [23]: 27.1 nM | TGI [23]: 83.3 nM | GI50 [24]: 135 nM | TGI [24]: 1340 nM | GI50 [25]: 56.3 nM | TGI [25]: 1680 nM | GI50 [26]: 608 nM | TGI [26]: 6180 nM | GI50 [27]: 194 nM | TGI [27]: 389 nM | GI50 [28]: 485 nM | TGI [28]: 2660 nM | GI50 [29]: 131 nM | TGI [29]: 262 nM | GI50 [30]: 5040 nM | TGI [30]: 18100 nM | GI50 [31]: 56 nM | TGI [31]: 244 nM | GI50 [32]: 195 nM | TGI [32]: 1830 nM | GI50 [33]: 290 nM | TGI [33]: 1430 nM | GI50 [34]: 1940 nM | TGI [34]: 5840 nM | GI50 [35]: 254 nM | TGI [35]: 701 nM | GI50 [36]: 188 nM | TGI [36]: 781 nM | GI50 [37]: 163 nM | TGI [37]: 1390 nM | GI50 [38]: 153 nM | TGI [38]: 443 nM | GI50 [39]: 1240 nM | TGI [39]: 14200 nM | GI50 [40]: 146 nM | TGI [40]: 317 nM | GI50 [41]: 36.3 nM | TGI [41]: 165 nM | GI50 [42]: 368 nM | TGI [42]: 2940 nM | GI50 [43]: 42.2 nM | TGI [43]: 210 nM | GI50 [44]: 54.3 nM | TGI [44]: 201 nM | GI50 [45]: 1050 nM | TGI [45]: 2230 nM | GI50 [46]: 329 nM | TGI [46]: 1350 nM | GI50 [47]: 157 nM | TGI [47]: 412 nM | GI50 [48]: 1800 nM | TGI [48]: 6090 nM | GI50 [49]: 482 nM | TGI [49]: 4850 nM | GI50 [50]: 369 nM | TGI [50]: 2950 nM | GI50 [51]: 693 nM | TGI [51]: 2050 nM | GI50 [52]: 1860 nM | TGI [52]: 3630 nM | GI50 [53]: 106 nM | TGI [53]: 366 nM | GI50 [54]: 497 nM | TGI [54]: 1730 nM | GI50 [55]: 1420 nM | TGI [55]: 2730 nM | GI50 [56]: 284 nM | TGI [56]: 1640 nM | GI50 [57]: 264 nM | TGI [57]: 1850 nM
